Test results reported in US6414154B1, “Tetraisoquinoline derivatives as modulators of dopamine D3 receptors” (SmithKline Beecham p.l.c., priority 1998, dated 2002).
Structures can show the parent of a compound that is named as a salt.

These molecules were tested against T1, human D3 dopamine receptors (Homo sapiens, UniProt P35462) (assay: displacement of [125I] iodosulpride binding to cloned human D3 dopamine receptors expressed in CHO cells). Conditions: 0.1 nM [125I] iodosulpride, CHO cell membranes, 30 min at 37° C.; read-out: pKi at the D3 receptor (converted).
T1 construct: expressed in transfected cells; host or cells: CHO cells (crude cell membranes)
T1 sequence (P35462 whole entry): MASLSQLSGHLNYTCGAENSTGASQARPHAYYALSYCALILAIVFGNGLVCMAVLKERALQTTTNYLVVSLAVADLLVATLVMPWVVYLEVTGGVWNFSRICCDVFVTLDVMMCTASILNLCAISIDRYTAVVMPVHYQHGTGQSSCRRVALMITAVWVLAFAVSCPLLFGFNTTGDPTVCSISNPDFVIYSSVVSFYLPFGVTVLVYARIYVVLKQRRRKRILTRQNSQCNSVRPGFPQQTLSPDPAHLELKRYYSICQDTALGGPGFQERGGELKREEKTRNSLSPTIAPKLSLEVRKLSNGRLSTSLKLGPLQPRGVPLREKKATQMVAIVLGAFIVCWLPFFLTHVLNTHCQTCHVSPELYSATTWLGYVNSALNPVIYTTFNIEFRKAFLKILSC
Method: The inhibition constants (Ki) of test compounds for displacement of [^125I] iodosulpride binding to human D3 dopamine receptors expressed in CHO cells were determined as follows. […] Cultures were grown as monolayers or in suspension in standard cell culture media. Cells were recovered by scraping (from monolayers) or by centrifugation (from suspension cultures), and were washed two or three times by suspension in phosphate buffered saline followed by collection by centrifugation. Cell pellets were stored frozen at −40° C. Crude cell membranes were prepared by homogenisation followed by high-speed centrifugation, and characterisation of cloned receptors achieved by radioligand binding.
Cell pellets were gently thawed at room temperature, and resuspended in about 20 volumes of ice-cold 50 mM Tris salts (pH 7.4@37° C.), 20 mM EDTA, 0.2 M sucrose. The suspension was homogenised using an Ultra-Turrax at full speed for 15 sec. The homogenate was centrifuged at 18,000 r.p.m for 20 min at 4° C. in a Sorvall RC5C centrifuge. The membrane pellet was resuspended in ice-cold 50 mM Tris salts (pH 7.4@37° C.), using an Ultra-Turrax, and recentrifuged at 18,000 r.p.m for 15 min at 4° C. in a Sorvall RC5C. The membranes were washed two more times with ice-cold 50 mM Tris salts (pH 7.4@37° C.). The final pellet was resuspended in 50 mM Tris salts (pH 7.4@37° C.), and the protein content determined using bovine serum albumin as a standard (Bradford, M. M. (1976) Anal. Biochem. 72, 248-254).
Crude cell membranes were incubated with 0.1 nM [^125I] iodosulpride (˜2000 Ci/mmol; Amersham, U. K.), and the test compound in a buffer containing 50 mM Tris salts (pH 7.4@37° C.), 120 mM NaCl, 5 mM KCl, 2 mM CaCl2, 1 mM MgCl2, 0.1% (w/v) bovine serum albumin, in a total volume of 1 ml for 30 min at 37° C. Following incubation, samples were filtered using a Brandel Cell Harvester, and washed three times with ice-cold 50 mM Tris salts (pH 7.4@37° C.), 120 mM NaCl, 5 mM KCl, 2 mM CaCl2, 1 mM MgCl2. The radioactivity on the filters was measured using a Cobra gamma counter (Canberra Packard). Non-specific binding was defined as the radioligand binding remaining after incubation in the presence of 100 μM iodosulpride. For competition curves, 14 concentrations (half-log dilutions) of competing cold drug were used. Competition curves were analysed simultaneously whenever possible using non-linear least-squares fitting procedures, capable of fitting one, two or three site models.

Ki, 3.16 to 12.6 nM:
N#Cc1ccc2c(c1)CCN(CC[C@H]1CC[C@H](NC(=O)Cc3cc4ccccc4s3)CC1)C2 [Example 29, trans-6-Cyano-2-(2-(1-(4-(2-benzothiophenyl)acetamido)-cyclohexyl)ethyl)-1,2,3,4-tetrahydroisoquinoline]
N#Cc1ccc2c(c1)CCN(CC[C@H]1CC[C@H](NC(=O)Cc3ccccn3)CC1)C2 [Example 15, trans-6-Cyano-2-(2-(1-(4-(2-pyridyl)acetamido)cyclohexyl)ethyl)-1,2,3,4-tetrahydroisoquinoline]
N#Cc1ccc2c(c1)CCN(CC[C@H]1CC[C@H](NC(=O)Cc3ccc(-c4ccccc4)cc3)CC1)C2 [Example 9, trans-6-Cyano-2-(^2-(1-(4-(4-phenyl)phenylacetamido)cyclohexyl)-ethyl)-1,2,3,4-tetrahydroisoquinoline]
N#Cc1ccc2c(c1)CCN(CC[C@H]1CC[C@H](NC(=O)Cc3cccc(F)c3)CC1)C2 [Example 4, trans-6-Cyano-2-(2-(1-(4-(3-fluorophenyl)acetamido)cyclohexyl)ethyl)-1,2,3,4-tetrahydroisoquinoline]
N#Cc1ccc2c(c1)CCN(CC[C@H]1CC[C@H](NC(=O)Cc3ccco3)CC1)C2 [Example 30, trans-6-Cyano-2-(2-(1-(4-(2-furanyl)acetamido)-cyclohexyl)ethyl)-1,2,3,4-tetrahydroisoquinoline]
N#Cc1ccc2c(c1)CCN(CC[C@H]1CC[C@H](NC(=O)CCc3ccccc3)CC1)C2 [Example 8, trans-6-Cyano-2-(2-(1-(4-(3-phenyl)propionamido)cyclohexyl)ethyl)-1,2,3,4-tetrahydroisoquinoline]
N#Cc1ccc2c(c1)CCN(CC[C@H]1CC[C@H](NC(=O)Cc3ccc(F)cc3F)CC1)C2 [Example 19, trans-6-Cyano-2-(2-(1-(4-(2,4-difluoro)phenylacetamido)cyclohexyl)-ethyl)-1,2,3,4-tetrahydroisoquinoline]
N#Cc1ccc2c(c1)CCN(CC[C@H]1CC[C@H](NC(=O)Cc3csc4ccccc34)CC1)C2 [Example 22, trans-6-Cyano-2-(2-(1-(4-(3-benzo[b]thienyl)acetarnido)cyclohexyl)-ethyl)-1,2,3,4-tetrahydroisoquinoline]
N#Cc1ccc2c(c1)CCN(CC[C@H]1CC[C@H](NC(=O)Cc3ccsc3)CC1)C2 [Example 11, trans-6-Cyano-2-(2-(1-(4-(3-thienyl)acetamido)cyclohexyl)ethyl)-1,2,3,4-tetrahydroisoquinoline]
N#Cc1ccc2c(c1)CCN(CC[C@H]1CC[C@H](NC(=O)Cc3ccc(F)cc3)CC1)C2 [Example 32, trans-6-Cyano-2-(2-(1-(4-(4-fluorophenyl)acetamido)cyclohexyl)ethyl)-1,2,3,4-tetrahydroisoquinoline, Hydrochloride]
N#Cc1ccc2c(c1)CCN(CC[C@H]1CC[C@H](NC(=O)Cc3cccs3)CC1)C2 [Example 10, trans-6-Cyano-2-(2-(1-(4-(2-thienyl)acetamido)cyclohexyl)ethyl)-1,2,3,4-tetrahydroisoquinoline]
N#Cc1ccc2c(c1)CCN(CC[C@H]1CC[C@H](NC(=O)Cc3c[nH]c4ccccc34)CC1)C2 [Example 12, trans-6-Cyano-2-(2-(1-(4-(3-indolyl)acetamido)cyclohexyl)ethyl)-1,2,3,4-tetrahydroisoquinoline]
N#Cc1ccc2c(c1)CCN(CC[C@H]1CC[C@H](NC(=O)COc3ccccc3)CC1)C2 [Example 23, trans-6-Cyano-2-(2-(1-(4-phenoxyacetamido)cyclohexyl)ethyl)-1,2,3,4-tetrahydroisoquinoline]
N#Cc1ccc2c(c1)CCN(CC[C@H]1CC[C@H](NC(=O)Cc3ccnc4ccccc34)CC1)C2 [Example 26, trans-6-Cyano-2-(2-(1-(4-(4-quinolyl)acetamido)-cyclohexyl)ethyl)-1,2,3,4-tetrahydroisoquinoline]
N#Cc1ccc2c(c1)CCN(CC[C@H]1CC[C@H](NC(=O)Cc3ccc4ccccc4c3)CC1)C2 [Example 2, trans-6-Cyano-2-(2-(1-(4-(2-naphthyl)acetamido)cyclohexyl)ethyl)-1,2,3,4-tetrahydroisoquinoline]
N#Cc1ccc(CC(=O)N[C@H]2CC[C@H](CCN3CCc4cc(C#N)ccc4C3)CC2)cc1 [Example 7, trans-6-Cyano-2-(2-(1-(4-(4-cyanophenyl)acetamido)cyclohexyl)ethyl)-1,2,3,4-tetrahydroisoquinoline]
N#Cc1ccc2c(c1)CCN(CC[C@H]1CC[C@H](NC(=O)Cc3cc(F)cc(F)c3)CC1)C2 [Example 28, trans-6-Cyano-2-(2-(1-(4-(3,5-difluoro)phenylacetamido)-cyclohexyl)ethyl)-1,2,3,4-tetrahydroisoquinoline]
N#Cc1ccc2c(c1)CCN(CC[C@H]1CC[C@H](NC(=O)Cc3cccc(Br)c3)CC1)C2 [Example 18, trans-6-Cyano-2-(2-(1-(4-(3-bromo)phenylacetamido)cyclohexyl)-ethyl)-1,2,3,4-tetrahydroisoquinoline]
N#Cc1cccc(CC(=O)N[C@H]2CC[C@H](CCN3CCc4cc(C#N)ccc4C3)CC2)c1 [Example 6, trans-6-Cyano-2-(2-(1-(4-(3-cyanophenyl)acetamido)cyclohexyl)ethyl)-1,2,3,4-tetrahydroisoquinoline]
N#Cc1ccc2c(c1)CCN(CC[C@H]1CC[C@H](NC(=O)Cc3ccc(C(F)(F)F)cc3)CC1)C2 [Example 27, trans-6-Cyano-2-(2-(1-(4-(4-trifluoromethyl)phenylacetamido)-cyclohexyl)ethyl)-1,2,3,4-tetrahydroisoquinoline]
N#Cc1ccc2c(c1)CCN(CC[C@H]1CC[C@H](NC(=O)Cc3cc(F)ccc3F)CC1)C2 [Example 13, trans-6-Cyano-2-(2-(1-(4-(2,5-difluoro)phenylacetamido)cyclohexyl)-ethyl)-1,2,3,4-tetrahydroisoquinoline]
N#Cc1ccc2c(c1)CCN(CC[C@H]1CC[C@H](NC(=O)Cc3ccc(I)cc3)CC1)C2 [Example 17, trans-6-Cyano-2-(2-(1-(4-(4-iodo)phenylacetamido)cyclohexyl)ethyl)-1,2,3,4-tetrahydroisoquinoline]
N#Cc1ccc2c(c1)CCN(CC[C@H]1CC[C@H](NC(=O)Cc3ccccc3F)CC1)C2 [Example 3, trans-6-Cyano-2-(2-(1-(4-(2-fluorophenyl)acetamido)cyclohexyl)ethyl)-1,2,3,4-tetrahydroisoquinoline]
CC(C)(C)c1ccc(CC(=O)N[C@H]2CC[C@H](CCN3CCc4cc(C#N)ccc4C3)CC2)cc1 [Example 21, trans-6-Cyano-2-(2-(1-(4-(4-t-butyl)phenylacetamido)cyclohexyl)-ethyl)-1,2,3,4-tetrahydroisoquinoline]
N#Cc1ccc2c(c1)CCN(CC[C@H]1CC[C@H](NC(=O)Cc3ccc(Br)cc3)CC1)C2 [Example 16, trans-6-Cyano-2-(2-(1-(4-(4-bromo)phenylacetamido)cyclohexyl)-ethyl)-1,2,3,4-tetrahydroisoquinoline]
N#Cc1ccc2c(c1)CCN(CC[C@H]1CC[C@H](NC(=O)Cc3ccc(F)c(F)c3)CC1)C2 [Example 14, trans-6-Cyano-2-(2-(1-(4-(3,4-difluoro)phenylacetamido)cyclohexyl)-ethyl)-1,2,3,4-tetrahydroisoquinoline]
N#Cc1ccc2c(c1)CCN(CC[C@H]1CC[C@H](NC(=O)CCc3ccc(F)cc3)CC1)C2 [Example 25, trans-6-Cyano-2-(2-(1-(4-(3-(4-fluoro)phenyl)propionamido)-cyclohexyl)ethyl)-1,2,3,4-tetrahydroisoquinoline]
N#Cc1ccc2c(c1)CCN(CC[C@H]1CC[C@H](NC(=O)CCCc3ccccc3)CC1)C2 [Example 24, trans-6-Cyano-2-(2-(1-(4-(4-phenyl)butyramido)cyclohexyl)ethyl)-1,2,3,4-tetrahydroisoquinoline]
